Experimental data as given in PubChem BioAssay (NCI).
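Step 1: Grow cells in 96-well plates. Step 2: Expose to compound for 48 hours at 5 concentrations. Step 3: Interpolate endpoints linearly; if unreached, use highest concentration. TGI marks complete inhibition of growth.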

What was measured:
Assay in all cases: growth of human tumour cells (NCI), 48 h
[1] = system: T-47D breast
[2] = system: NCI-H460 lung
[3] = system: KM12 colon
[4] = system: K-562 leukemia
[5] = system: HCT-116 colon
[6] = system: HS 578T breast
[7] = system: MOLT-4 leukemia
[8] = system: A549 NSCLC
[9] = system: BT-549 breast
[10] = system: SNB-19 CNS
[11] = system: MDA-MB-231 breast
[12] = system: MCF7 breast
[13] = system: MALME-3M melanoma
[14] = system: SK-OV-3 ovarian
[15] = system: OVCAR-4 ovarian
[16] = system: HCT-15 colon
[17] = system: MDA-N
[18] = system: SW-620 colon
[19] = system: SR leukemia
[20] = system: NCI-H226 lung
[21] = system: SF-539 CNS
[22] = system: OVCAR-3 ovarian
[23] = system: HT29 colon
[24] = system: SF-295 CNS
[25] = system: MDA-MB-435
[26] = system: NCI-H522 lung
[27] = system: TK-10 renal
[28] = system: HOP-92 NSCLC
[29] = system: UO-31 renal
[30] = system: SK-MEL-28 melanoma
[31] = system: OVCAR-8 ovarian
[32] = system: HOP-62 NSCLC
[33] = system: IGROV1 ovarian
[34] = system: NCI/ADR-RES ovarian
[35] = system: PC-3 prostate
[36] = system: UACC-62 melanoma
[37] = system: U251 CNS
[38] = system: COLO 205 colon
[39] = system: OVCAR-5 ovarian
[40] = system: SK-MEL-5 melanoma
[41] = system: UACC-257 melanoma
[42] = system: DU-145 prostate
[43] = system: EKVX NSCLC
[44] = system: CCRF-CEM leukemia
[45] = system: SF-268 CNS
[46] = system: CAKI-1 renal
[47] = system: SN12C renal
[48] = system: HCC-2998 colon
[49] = system: SNB-75 CNS
[50] = system: RXF 393 renal
[51] = system: SK-MEL-2 melanoma
[52] = system: RPMI-8226 leukemia
[53] = system: 786-0 renal
[54] = system: ACHN renal
[55] = system: A498 renal
[56] = system: NCI-H23 lung
[57] = system: M14 melanoma

Measured: TGI

COC(=O)C1=C(C)N2[C@H](C(=O)O)CO[C@@]2(C)[C@H](C(=O)OC)[C@H]1c1cccc([N+](=O)[O-])c1
> 100 µM: all assays above
